# Test system: IL-6
# Experiment: LPS-induced IL-6 expression in mouse bone marrow-derived dendritic cells, ELISA
# Format: cell-based
# Conditions: DCs co-treated with LPS and BrDs at 20 μM
# Description: For mouse bone marrow-derived DCs (BMDCs), five to six-week-old female C57BL/6JNarl mice were purchased from the National Laboratory Animal Center, Taiwan and kept under SPF conditions. BMDCs were generated from bone marrow cells of C57BL/6 mice as described previously (Yin S Y, Wang W H, Wang B X, Aravindaram K, Hwang P I, Wu H M, Yang N S. BMC genomics 2010, 11:612). In brief, bone marrow was isolated from femurs and tibiae which were then flushed with RPMI-1640 medium using a syringe with a 0.45-mm needle on Day 0. Red blood cells in suspension were lysed for […] with ACK lysing buffer (150 mM NH4Cl, 1.0 mM KHCO3, 0.1 mM EDTA). Bone marrow cells were suspended at a density of 1×10^7 cells/30 ml in RPMI-1640 containing 10% FBS, 2 mM L-glutamine, 1% of nonessential amino acids, 100 U/mL penicillin and 100 μg/mL streptomycin supplemented with 20 ng/mL of mGM-CSF in 15-cm dishes at 37° C. with 5% CO2. On day 2, two-thirds of the medium was removed and 30 mL fresh medium with mGM-CSF was added to the cells. On day 5, culture plates were gently swirled and the floating and loosely adherent cells were discarded. Aliquots of 75% culture media were replenished with 20 ng/mL mGM-CSF and 20 ng/mL mIL-4. On day 7, mouse BMDCs (95% pure CD11b and MHC II) were harvested and incubated in RPMI 1640 medium containing 1 mM sodium pyruvate, 0.1 mM nonessential amino acids, 100 U/ml penicillin, 100 μg/ml streptomycin, and supplemented with 10% fetal bovine serum (Invitrogen, Carlsbad, Calif.) for 24 h at 37° C. with or without test chemicals in the presence or absence of LPS (100 ng/ml).
# BMDCs were treated with or without test chemicals in the presence or absence of LPS (100 ng/ml) for 24 h at 37° C. Aliquots of supernatants from DC cultures were assayed for IL-6 and TNF-α using commercial ELISA kits (R&D Systems, Minneapolis, Minn.) following the manufacturer's recommendations.
# Several studies have reported that the secretion of specific cytokines, including IL-1β, TNF-α and IL-6 by keratinocytes and various immune cells is involved in cutaneous inflammation (Nestle F O, Di Meglio P, Qin J Z, Nickoloff B J. Nature reviews Immunology 2009, 9:679-691; De Vry C G, Valdez M, Lazarov M, Muhr E, Buelow R, Fong T, Iyer S. J Invest Dermatol 2005, 125:473-481; Cumberbatch M, Dearman R J, Kimber I. Immunology 1996, 87:513-518). In order to investigate the anti-inflammatory effect of BrD1 on cytokine expression, mouse bone marrow-derived dendritic cells were used to evaluate the inhibitory effect of BrD1 on LPS-induced expressions of TNF-α and IL-6. In our time-course study for expression of TNF-α and IL-6, after LPS stimulation, a high expression of TNF-α and IL-6 was maintained at 24 h (FIG. 6A). We therefore chose 24 h as the time point at which to assess the expression of TNF-α and IL-6.
row,SMILES,inhibition of LPS-induced IL-6 expression (structure-activity relationship)
1,CCCCC(=O)O[C@H]1C[C@H](OC(C)=O)[C@@]2(C)[C@H]([C@H]1C)[C@H](OC(C)=O)[C@]13O[C@@]1(C)C(=O)O[C@H]3/C=C(/C)C[C@H](OC(=O)CCC)[C@@H]2OC(C)=O [BrD1-5C],inhibitory activity gradually decreased
2,CCCCCC(=O)O[C@H]1C[C@H](OC(C)=O)[C@@]2(C)[C@H]([C@H]1C)[C@H](OC(C)=O)[C@]13O[C@@]1(C)C(=O)O[C@H]3/C=C(/C)C[C@H](OC(=O)CCC)[C@@H]2OC(C)=O [BrD1-6C],inhibitory activity gradually decreased
3,CCCCCCC(=O)O[C@H]1C[C@H](OC(C)=O)[C@@]2(C)[C@H]([C@H]1C)[C@H](OC(C)=O)[C@]13O[C@@]1(C)C(=O)O[C@H]3/C=C(/C)C[C@H](OC(=O)CCC)[C@@H]2OC(C)=O [BrD1-7C],inhibitory activity gradually decreased
4,CCCCCCCCCC(=O)O[C@H]1C[C@H](OC(C)=O)[C@@]2(C)[C@H]([C@H]1C)[C@H](OC(C)=O)[C@]13O[C@@]1(C)C(=O)O[C@H]3/C=C(/C)C[C@H](OC(=O)CCC)[C@@H]2OC(C)=O [BrD1-10C],inhibitory activity gradually decreased

# Source: patent US8530513B1, “Pharmaceutical uses of diterpene excavatolide B from a coral or an analogue thereof” (National Sun Yat-Sen University, priority 2012, dated 2013)
